Where two headings read alike, the source gives them in different places.
Legend:
CYP3A4 [1] = molecular target: T1, CYP3A4 (Homo sapiens, UniProt P08684); conditions: cited from earlier work
[2] = test system: patients having TG levels >500 mg/dL; assay: Randomized, double-blind, placebo-controlled study of gemcabene, subset of patients entering with TG >500 mg/dL; format: in vivo, human; conditions: for ApoA-I average % increase / ApoB average % decrease / ApoC-III average % decrease / HDL-C average % increase / VLDL-C average % decrease / hs-CRP average % decrease / Triglycerides average % decrease: patients TG >500 mg/dL; for Triglycerides average % decrease: once daily for 12 weeks, serum, change from baseline
Description: A randomized, double-blind, placebo-controlled study was conducted to evaluate the efficacy and tolerability of gemcabene in patients with HDL cholesterol levels <35 mg/dL. Patients were stratified based on whether mean serum triglyceride (TG) levels were <200 mg/dL or ≧200 mg/dL. Within each TG stratum, patients were randomized to receive either 150, 300, 600 or 900 mg of gemcabene, or placebo, once daily for 12 weeks.
Patients were evaluated for percent change from baseline levels of serum HDL cholesterol, serum LDL cholesterol, TG, apolipoproteins A-I, A-II, B, C-III, and E, hs CRP and non-HDL cholesterol levels. Blood samples were measured at screening, randomization and at −8, −4, −2 weeks, baseline, and 2, 4, and 12 weeks after the start of study medication. In addition, HDL-C, LDL-C and TG levels were measured at 2 and 4 weeks before starting study medication. Bays H. E. et al. Am J Cardiol (2003) vol.
When the data were examined for the subset of patients entering the study having TG levels greater than 500 mg/dL, an unexpectedly large decrease in TG levels for those patients treated with gemcabene was seen as compared with the broader group of patients having triglyceride levels ≧200 mg/dL. Twenty-seven patients having TG levels >500 mg/dL were evaluated in the study.
FIGS. 2a-e, 3a-e, 4a-e, 5a-e, 6a-e, 7a-e and 8a-e are graphs illustrating the serum levels of TG, HDL-C, ApoA-I, ApoC-III, VLDL-C, hs CRP, and ApoB for individual patients at baseline and at 12 weeks post treatment with doses of 150, 300, 600, and 900 mg/day of gemcabene, or placebo.
Tables 1-7 provide the data expressed as average percent and mean percent decrease or increase, as appropriate, for each of these parameters at each of the doses tested.

[3] = test system: patient with triglyceride level of 1030 mg/dl; assay: Example 5: patient with triglyceride level of 1030 mg/dl treated with gemcabene; format: in vivo, human; conditions: 300 mg once per day plus low fat diet, 12-week follow-up, initial 1030 mg/dl
Description: A patient, as part of a routine annual examination, has blood tests which reveal that the patient has an LDL-C level of 200 mg/dl and a triglyceride level of 1030 mg/dl. This high triglyceride level places them at high risk for developing pancreatitis. According to the […] guidelines, the patient's treatment is initially targeted to address the high triglyceride level. The patient is administered gemcabene at a dose of 300 mg once per day and is placed on a low fat diet.

CYP3A4 [4] = molecular target: T1, CYP3A4; conditions: simvastatin (a CYP3A4 substrate); cited from earlier work
[5] = test system: patients having triglyceride levels ≧200 mg/dL; conditions: data reported in Bays et al., cited from earlier work

T1 sequence (P08684 whole entry): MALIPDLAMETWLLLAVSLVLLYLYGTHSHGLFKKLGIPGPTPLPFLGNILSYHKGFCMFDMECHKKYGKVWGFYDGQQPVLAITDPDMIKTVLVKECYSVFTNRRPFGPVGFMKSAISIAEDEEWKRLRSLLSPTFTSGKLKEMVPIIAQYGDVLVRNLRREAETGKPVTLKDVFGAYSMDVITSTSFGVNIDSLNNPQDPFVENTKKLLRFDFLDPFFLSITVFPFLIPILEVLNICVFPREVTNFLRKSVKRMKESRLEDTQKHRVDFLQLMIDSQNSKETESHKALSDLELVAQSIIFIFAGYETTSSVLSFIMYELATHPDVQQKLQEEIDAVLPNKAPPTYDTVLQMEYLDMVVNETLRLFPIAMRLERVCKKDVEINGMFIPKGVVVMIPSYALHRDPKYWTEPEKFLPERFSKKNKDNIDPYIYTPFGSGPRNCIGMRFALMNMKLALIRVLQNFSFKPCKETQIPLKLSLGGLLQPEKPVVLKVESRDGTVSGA

CC(C)(CCCCOCCCCC(C)(C)C(=O)O)C(=O)O [Gemcabene, 6,6′-oxybis-(2,2′-dimethylhexanoic acid)]
inhibition of CYP3A4 (CYP3A4 [1]): low level of inhibition
ApoA-I average % increase ([2]; 150 mg/day, 12 weeks): 9.27%
ApoB average % decrease ([2]; 150 mg/day, 12 weeks): −16.15%
ApoC-III average % decrease ([2]; 150 mg/day, 12 weeks): 36.95%
HDL-C average % increase ([2]; 150 mg/day, 12 weeks): 32.59%
VLDL-C average % decrease ([2]; 150 mg/day, 12 weeks): 48.50%
hs-CRP average % decrease ([2]; 150 mg/day, 12 weeks): −4.02%
Triglycerides average % decrease ([2]; 150 mg/day): 52.09%
Triglycerides average % decrease ([2]; 150 mg/day, listed as gemcabene): 52%
ApoA-I average % increase ([2]; 300 mg/day, 12 weeks): −6.17%
ApoB average % decrease ([2]; 300 mg/day, 12 weeks): 1.25%
ApoC-III average % decrease ([2]; 300 mg/day, 12 weeks): 49.41%
HDL-C average % increase ([2]; 300 mg/day, 12 weeks): 11.69%
VLDL-C average % decrease ([2]; 300 mg/day, 12 weeks): 51.86%
hs-CRP average % decrease ([2]; 300 mg/day, 12 weeks): −429.19%
Triglycerides average % decrease ([2]; 300 mg/day): 61.18%
Triglycerides average % decrease ([2]; 300 mg/day, listed as gemcabene): 61%
ApoA-I average % increase ([2]; 600 mg/day, 12 weeks): −3.31%
ApoB average % decrease ([2]; 600 mg/day, 12 weeks): −3.70%
ApoC-III average % decrease ([2]; 600 mg/day, 12 weeks): 30.89%
HDL-C average % increase ([2]; 600 mg/day, 12 weeks): −4.02%
VLDL-C average % decrease ([2]; 600 mg/day, 12 weeks): 28.73%
hs-CRP average % decrease ([2]; 600 mg/day, 12 weeks): 33.50%
Triglycerides average % decrease ([2]; 600 mg/day): 36.44%
ApoA-I average % increase ([2]; 900 mg/day, 12 weeks): 0.47%
ApoB average % decrease ([2]; 900 mg/day, 12 weeks): 2.26%
ApoC-III average % decrease ([2]; 900 mg/day, 12 weeks): 20.36%
HDL-C average % increase ([2]; 900 mg/day, 12 weeks): 1.03%
VLDL-C average % decrease ([2]; 900 mg/day, 12 weeks): 17.10%
hs-CRP average % decrease ([2]; 900 mg/day, 12 weeks): 66.64%
Triglycerides average % decrease ([2]; 900 mg/day): 0.90%
increase in HDL-C levels ([2]; one patient (FIG. 1), 150 mg/day, 12 weeks): 27%
serum triglyceride level after treatment ([2]; one patient (FIG. 1), 150 mg/day, 12 weeks post-treatment, TG 550 mg/dL at initiation): 210 mg/dL
fall in triglyceride level ([2]; one patient (FIG. 1), 150 mg/day, 12 weeks, TG 550 mg/dL at initiation): 62%
triglyceride level at follow-up [3]: 363 mg/dL
effect in drug-drug interaction study with simvastatin (CYP3A4 [4]): no clinically relevant effect
reduction in triglyceride levels ([5]; 150 mg dose): 26.6%
reduction in triglyceride levels ([5]; 300 mg dose): 38.9%

— US8846761B2, “Method for treating pancreatitis” (Michigan Life Therapeutics, LLC, priority 2010, dated 2014)
